Laboratory results: US20130158073A1, “Methods Of Diminishing Co-Abuse Potential” (priority 2004, published 2013)
Structures can show the parent of a compound that is named as a salt.

Tests used:
[1] = cited from earlier work
male Sprague-Dawley rats = details: coadministered with 10% w/v ethanol
[2] = co-administration of racemic methylphenidate and ethanol

SMILES: COC(=O)[C@@H](c1ccccc1)[C@@H]1CCCCN1 [l-methylphenidate]
- transesterification after co-administration of racemic methylphenidate and ethanol [1, 2]: transesterifies enantioselectively to l-ethylphenidate

SMILES: CCOC(=O)C(c1ccccc1)C1CCCCN1 (centres unmarked) [Ethylphenidate]
- isomer excreted in the urine [1, 2]: primarily as the l-isomer

SMILES: COC(=O)[C@H](c1ccccc1)[C@H]1CCCCN1 [d-MPH, dexmethylphenidate HCl]
- potency compared to ethanol/d,l-MPH (male Sprague-Dawley rats; i.p.): half as potent

SMILES: COC(=O)C(c1ccccc1)C1CCCCN1 (racemic) [d,l-MPH, d,l-methylphenidate HCl]
- isomer excreted in the urine [1, 2]: primarily as the d-isomer
- ethylphenidate metabolite in plasma and urine ([1]; human subjects, co-administration of a single dose of methylphenidate and ethanol): ethylphenidate was also detected in plasma and urine
- potency compared to ethanol/cocaine for discriminative stimulus effects (male Sprague-Dawley rats; i.p.): equipotent
- potency compared to ethanol/cocaine for response rate effects (male Sprague-Dawley rats; i.p.): equipotent
- rates of response compared with saline control test sessions, at doses producing full ethanol/cocaine-lever responding (male Sprague-Dawley rats; i.p. 15 minutes before session): do not decrease rates of response
